In ChEMBL document CHEMBL5726126, “2-pyridylamino-4-nitrile-piperidinyl orexin receptor antagonists” (2017):

Target: T1, Orexin receptor type 2 (Homo sapiens, UniProt O43614)
T1 sequence (O43614 whole entry): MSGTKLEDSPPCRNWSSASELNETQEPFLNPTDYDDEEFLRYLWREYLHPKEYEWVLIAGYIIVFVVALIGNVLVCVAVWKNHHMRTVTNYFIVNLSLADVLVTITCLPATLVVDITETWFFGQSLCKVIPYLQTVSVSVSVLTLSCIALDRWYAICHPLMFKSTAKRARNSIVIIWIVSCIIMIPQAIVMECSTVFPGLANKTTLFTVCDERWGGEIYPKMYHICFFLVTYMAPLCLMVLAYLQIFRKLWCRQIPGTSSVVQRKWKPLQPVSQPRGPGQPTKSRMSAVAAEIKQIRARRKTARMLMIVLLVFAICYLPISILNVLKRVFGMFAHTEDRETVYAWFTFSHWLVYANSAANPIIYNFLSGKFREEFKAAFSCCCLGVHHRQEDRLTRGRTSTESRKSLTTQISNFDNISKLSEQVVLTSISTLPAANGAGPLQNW
Assay: FLIPR Ca2+ Flux Assay: FLIPR Ca2+ Flux Assay- (Okumura et al., Biochem. Biophys. Res. Comm. 280:976-981, 2001). In a typical experiment the OX1 and OX2 receptor antagonistic activity of the compounds of the present invention was determined in accordance with the following experimental method. For intracellular calcium measurements, Chinese hamster ovary (CHO) cells expressing the rat orexin-1 receptor or the human orexin-2 receptor, are grown in Iscove's modified DMEM containing 2 mM L-glutamine, […], 1% hypoxanthine-thymidine supplement, 100 U/ml penicillin, 100 μg/ml streptomycin and 10% heat-inactivated fetal calf serum (FCS). The cells are seeded at 20,000 cells/well into Becton-Dickinson black 384-well clear bottom sterile plates coated with poly-D-lysine. All reagents were from GIBCO-Invitrogen Corp. The seeded plates are incubated overnight at […]. and 5% CO2. Ala-6,12 human orexin-A as the agonist is prepared as a 1 mM stock solution in 1% bovine serum albumin (BSA) and diluted in assay buffer (HBSS containing 20 mM HEPES, 0.1% BSA and 2.5 mM probenecid, pH7.4) for use in the assay at a final concentration of 70 pM. Test compounds are prepared as 10 mM stock solution in DMSO, then diluted in 384-well plates, first in DMSO, then assay buffer. […]
Assay type: cell-based

SMILES: CC(=O)N(c1cc(C#N)ccn1)[C@@H]1CC[C@@H](C)N(C(=O)c2ccccc2-n2nccn2)C1
- IC50: 1780 nM
